Data from patent EP2265632B1, “CD4-RELATED POLYPEPTIDES AND METHODS OF USE” (priority 2008, dated 2009).

Experiments:
[1] = test system: gp120BaL; assay: Epitope occlusion assay (ELISA): competition with anti-gp120 MAbs for immobilized gp120; type: binding, HIV-1; settings: for effect on binding of MAb 654-30D to gp120: CD4bs-directed MAb 654-30D 0.2 nM; for effect on binding of MAb 654-30D to gp120 / effect on binding of MAb b12 to gp120 / effect on binding of MAb 2G12 to gp120 / effect on binding of MAb B4a1 to gp120: 2dCD4 0 to 1 µM or peptides 0 to 1 mM; for effect on binding of MAb b12 to gp120: CD4bs-directed MAb b12 0.2 nM; for effect on binding of MAb 2G12 to gp120: CD4bs-independent MAb 2G12 0.2 nM; for effect on binding of MAb B4a1 to gp120: CD4bs-independent MAb F425 B4a1 (V3 loop) 0.2 nM
[2] = Peptide analyses: oxidation state by discontinuous Tris/Tricine PAGE with densitometry; type: physicochemical; settings: for peptide existing as monomers: densitometric analysis; for peptide existing as monomers / oxidation state of the peptide: no reducing agent; for oxidation state of the peptide: reconstituted in PBS (pH 7.4), Tris/Tricine PAGE
Experimental: Peptide analyses. Synthetic 7-mer peptides Hel-S (RRSLWDQ, SEQ ID NO:10), Hel-Cs (DLRQCWR, SEQ ID NO:27) and Hel-C (RRCLWDQ, SEQ ID NO:2) were analysed by discontinuous PAGE according to the method of Schagger and von Zagau with modifications. Briefly, 2.5 µg of each lyophilized peptide reconstituted in pure H2O was mixed with a reducing agent-free loading buffer (0.1 M Tris, 20% glycerol, 8% SDS and 0.02% Coomassie blue G-250), incubated at 80°C for 3 minutes and loaded onto a 17.5% Tris/Tricine gel. Samples were resolved at 20 mAper gel until stacked (1-2 hours) and at 35 mA for 16 hours through the resolving gel. The gel was fixed by incubation in a 5% glutaraldehyde solution for 1 hour and then stained with Coomassie Blue-R250. Peptide monomer/dimer ratios were calculated by densitometry using Quantity One® software (BioRad, Hercules, CA (USA)). To evaluate the redox states of cysteine-containing peptides further, reduced Glutathione (GSH) (Sigma, UK), β-mercaptoethanol and dithiothreitol (DTT) were included in the sample loading buffer at concentrations ranging from 0 to 400 mM, and the samples were resolved and analysed as described above.
Peptide Analyses. We analysed the oxidation states of the synthetic peptides Hel-S, Hel-Cs and Hel-C following reconstitution in PBS (pH 7.4) by high resolution Tris/Tricine PAGE (resolving buffer pH = 8.0). As expected, in aqueous solution at close to neutral pH, the wild-type CD4-mimetic peptide Hel-S consisted of a pure monomer of molecular weight equal to approximately 1 kDa (predicted Mw = 976 g/mol). […] The latter are evident as bands of approximately 2 kDa, which presumably result from intermolecular disulfide bond formation. […] We then treated Hel-C with the thiol-containing reducing compounds β-mercaptoethanol (β-ME) and 1,4-dithiothreitol (DTT) to determine relative effects on cysteine oxidation in this peptide.

[3] = test system: recombinant gp120BaL; assay: Electrophoretic mobility shift assay (EMSA) with [14C]-acetylated peptides, scintillation counting of excised gp120; type: binding, HIV-1; settings: for peptide associated with excised gp120: 5 µM gp120BaL, 500 µM radiolabeled peptide, no reducing agent
Experimental: Peptide N-terminal [^14C]-Acetylation. Hel-S, Hel-Cs and Hel-C were radioactively labeled by N-terminal acetylation according to the method of Fraenkel-Conrat and Colloms with modifications. Briefly, peptides were reconstituted in an ice cold saturated solution of sodium acetate (> 3 M) to a concentration of 5 mM. [^14C]-Acetic anhydride (specific activity 116 mCi/mmol, Amersham Biosciences, UK) was then added to 100 µl of the reconstituted peptide solution in two 1 µl installments over 15 minutes, and the labeling reactions were incubated for 2 hours on ice. After addition of the final acetic anhydride installment, the reaction concentrations of both peptide and acetic anhydride were 5 mM, and the samples contained 1% toluene and 500 nCi/µl of [^14C]. An equal volume (100 µl) of ice cold PBS (pH 7.4) was then added to each reaction. For buffer exchange and removal of unincorporated radiolabel, the [^14C]-labeled peptides were purified chromatographically using Sephadex G-10 spin columns (Sigma, UK) equilibrated in PBS (pH 7.4). The concentration of the purified labeled peptides was determined by measuring A280, and the labeling efficiencies were analysed by discontinuous PAGE and fluorescence autoradiography, as well as by liquid scintillation counting using Packard Tri-Carb 2200 Liquid Scintillation Analyzer. Labeled peptides were stored in 50 µl aliquots at -80°C.
Electrophoretic Mobility Shift Assay (EMSA). Peptide-gp120 binding reactions were set up in 50 µl and contained 5 µM of pure recombinant gp120BaL and 500 µM of radio labeled Hel-S, Hel-Cs or Hel-C in PBS (pH 7.4). Reactions were incubated at 25°C for 3 hours and then stopped by the addition of an equal volume (50 µl) of either reducing agent-free loading buffer (0.1 M Tris, 20% glycerol, 8% SDS and 0.02% Coomassie blue G-250) or the same buffer containing 1, 10 or 100 mM of DTT. The samples were incubated at 80°C for 3 minutes before loading on a 20 × 20 cm 6 - 20% gradient Tris/Tricine polyacrylamide gel, and were resolved at a constant 40 V for 16 hours at room temperature. After electrophoresis, the gel was rinsed thoroughly with H2O and then stained lightly by incubation in a solution containing 10% methanol, 10% acetic acid and 0.02% Coomassie Blue R-250 for 10 minutes with gentle shaking. The gel was rinsed with H20, and bands corresponding to gp120 were excised using a gel punch and placed in 1.5 ml microcentrifuge tubes. The gp120-containing polyacrylamide slices were solubilized by incubation at 37°C for 16 hours in 400 µl of a solution containing 30% H2O2 and 0.03% ammonium hydroxide. The dissolved polyacrylamide samples were added to 2 ml of Aquasol-2 scintillation cocktail (Perkin Elmer, USA), and radioactive emissions expressed as counts per minute (cpm) measured by scintillation counting.
Hel-C Binds gp120 through disulfide linkage on gp120. We adopted two independent approaches to evaluate the potential of Hel-C to bind recombinant gp120. First, we used an electrophoretic mobility shift assay (EMSA) to detect gp120-bound peptides following resolution of peptide/protein mixtures on denaturing gradient polyacrylamide gels. This method also enabled us to determine whether the mechanism of binding could be related to the establishment of disulphide bonds between the peptides and target gp120, by measuring the proportion of bound peptide in response to increasing doses of DTT. For detection, we decided to incorporate as small a label as possible into the peptide, so that steric effects of the labeling procedure would be minimal (such as would be the case with larger fluorescent/antigenic tags), and that the peptide would be able to adopt a secondary structure as close as possible to the R59-Q64 α-helix chain in CD4. We therefore labeled Hel-C and the control peptides Hel-S and Hel-Cs with [^14C]-acetic anhydride, which incorporated a single [^14C]-acetyl group on the peptide N-termini. […]

[4] = test system: recombinant gp120BaL; assay: Surface plasmon resonance (Biacore 3000) on immobilized gp120; type: binding, HIV-1
Experimental: Surface Plasmon Resonance. All surface Plasmon resonance (SPR) experiments were performed on a BIA3000 optical biosensor (Biacore Inc., Uppsala, Sweden). Recombinant gp120BaL was immobilized on CM5 sensor chips by amine coupling according to the manufacturer's instructions. Briefly, a solution of 0.2 M EDC and 0.05 M NHS was used to activate carboxyl groups on the sensor surface at a flow rate of 5 µL/min for 10 minutes. Recombinant gp120BaL, dissolved in 100 mM sodium acetate buffer (pH 5.5) to a final concentration of 0.05 µM, was passed over the sensor chip surface at a flow rate of 5 µL/min until an immobilization level of 5000 RU was achieved. Excess carboxyl groups were capped by injection of 1 M ethanolamine (pH 8.0) at a flow rate of 5 µL/min for 5 minutes. Unbound ligand was removed by injecting 10 mM glycine (pH 2.5) at a flow rate of 5 µL/min for 2 minutes. In all experiments, the neighbouring flow cell was treated as mentioned above without the immobilization of gp120BaL, and this served as a reference surface. Prior to all experiments, the functionalities of the gp120 surfaces were tested by binding sCD4 at 500 nM in HEPES-buffered saline supplemented with 0.15 M NaCl (HBS-N, pH7.4). Analyte solutions were prepared in HBS-N at least 30 minutes prior to injection. All binding experiments were performed in duplicate at 25°C. For peptide binding analyses, increasing concentrations of peptide (from 0 to 500 µM) were passed over the surface at a flow rate of 5 µL/min, with a 5 minute association phase and a 6 minute dissociation phase. Surfaces were regenerated with a 20 mM sodium hydroxide (NaOH) solution between consecutive peptide analyses. The integrity of the surfaces was tested after each regeneration for sCD4 binding. Buffer injections and control surface binding were subtracted for all reported data.
Recombinant gp120BaL was immobilized on CM5 sensorchips and exposed to increasing concentrations of Hel-S, Hel-Cs or Hel-C.
The reasons for the slight difference are likely to be related to the different target gp120s used in these studies. […] Our data thus fit to a direct binding model consistent with 1:1 stoichiometry, and closely match previously published results.

| Substance | effect on binding of MAb 654-30D to gp120 [1] | effect on binding of MAb b12 to gp120 [1] | effect on binding of MAb 2G12 to gp120 [1] | effect on binding of MAb B4a1 to gp120 [1] | peptide existing as monomers [2] | oxidation state of the peptide [2] | peptide associated with excised gp120 [3] | other results |
| --- | --- | --- | --- | --- | --- | --- | --- | --- |
| DLRQCWR [Hel-Cs] | did not compete | did not compete | did not compete | did not compete | less than 10% | mixture of monomers and dimers | small amount | effect on binding of MAb b12 to gp120 ([1]; listed as scrambled): does not |
| RINNIPWSEAMM [12p1, reference compound] | – | – | – | – | – | – | – | calculated Rmax ([4]; 5000 RU gp120BaL surface): approximately 67 RU; amount bound ([4]; just over 100 µM peptide, 5000 RU gp120 BaL surface): approximately 45 RU |
| RRCLWDQ [Hel-C, linear CD4-mimetic 7-mer peptide, R58 to Q64 of mature CD4 with S60C mutation] | dose-dependent inhibitory effect | dose-dependent inhibitory effect | did not compete | did not compete | less than 10% | mixture of monomers and dimers | significant quantity | effect on binding of MAb b12 to gp120 ([1]; listed as S85C): appear to block; relief of Hel-C-mediated inhibition of b12-gp120 binding ([1]; peptide pre-treated with 20 mM DTT): complete; relief of Hel-C-mediated inhibition of b12-gp120 binding ([1]; peptide pre-treated with 20 mM β-mercaptoethanol): only partially rescued b12 binding; effect of reducing compounds on the amount of 2G12 bound in the presence or absence of peptide ([1]; peptide pre-treated with 20 mM β-mercaptoethanol or DTT): no effect; proportion of Hel-C monomer ([2]; DTT at 10 mM): 50%; effect of DTT on cysteine oxidation ([2]; DTT at 200 mM): completely abolished the ability of the peptide to oxidize; effect of β-ME on cysteine oxidation ([2]; β-ME at 200 mM): unable to monomerize the peptide completely; mode of binding to gp120 (SPR binding kinetics) ([4]; both monomeric and trimeric gp120 proteins): binds covalently; binding to recombinant gp120 ([4]; conclusion from EMSA and SPR collectively): able to bind recombinant gp120; amount of bound peptide relative to the amount bound in the absence of any reducing compound ([3]; 100 mM DTT): 10%; mode of binding to gp120 (EMSA) ([3]; C14-radioactively labeled peptide, denaturing gels, absence and presence of reducing agents): binds covalently; amount of Hel-C bound to gp120 ([3]; increasing amounts of DTT added): decreased |
| RRSLWDQ [Hel-S] | did not compete | did not compete | did not compete | did not compete | – | pure monomer | no detectable | effect on binding of MAb b12 to gp120 ([1]; listed as native): does not |
